# Laboratory results taken from patent publication US20210267959A1, “METHODS OF TREATING RENAL DISEASE” (The Regents of the University of California, priority 2018, published 2021).
# Tests used:
# [1] = test system: mouse model of chronic kidney disease (CKD) via 5/6 nephrectomy; assay: JZL184 in mouse 5/6 nephrectomy model of chronic kidney disease; format: in vivo, Male C57BL/6J mice; conditions: CKD mice, JZL184 4 mg/kg, 4 weeks; FIG. 12
# Protocol: (§1) We used a well-known experimental tool, JZL184, which inhibits the enzyme responsible for breakdown of 2-AG, monoacylglycerol lipase (MGL), to determine the effect of increased tissue 2-AG levels on markers of renal function in animal models of chronic kidney disease (CKD). JZL184 was administered intraperitoneally in a well-established rat and mouse model of chronic kidney disease (CKD) (FIG. 8).
# (§2) Therefore, we induced CKD in animals via 5/6 nephrectomy (surgical removal of one entire kidney in addition to 2/3 of the contralateral kidney which results in significant renal mass reduction and development of kidney failure over 6-10 weeks) in two separate studies (one set in rats and one set in mice).
# We performed a similar experiment in mice. Male C57BL/6J mice underwent sham surgery versus 5/6 nephrectomy to induce CKD and two weeks after surgery were randomized to vehicle versus JZL184 therapy (4 mg/kg). Treated animals received JZL184 (4 mg/kg) for an additional 4 weeks (FIG. 11).
# [2] = test system: monoacylglycerol lipase (MGL); conditions: cited from earlier work
# [3] = test system: rat model of chronic kidney disease (CKD) via 5/6 nephrectomy; assay: JZL184 in rat 5/6 nephrectomy model of chronic kidney disease; format: in vivo, male Sprague-Dawley rats; conditions: CKD rats, 4 weeks
# Protocol: as §1, §2
# In the rats, male Sprague-Dawley rats underwent 5/6 nephrectomy versus sham surgery and after two weeks were randomized to 4 groups: sham surgery, CKD treated with vehicle, CKD treated with 4 mg/kg JZL184 and CKD treated with 8 mg/kg JZL184 (n=6-8). During and at the end of the study, non-invasive blood pressure measurements were performed using tail-cuff plethysmography. Before sacrifice, a 24-hour urine sample was collected and evaluated for urine protein and creatinine to assess for degree of proteinuria (degree of proteinuria is a marker of glomerular and interstitial kidney damage in advanced CKD). After sacrifice, serum was obtained to assess for renal function. […] This was associated reduced systolic blood pressure and decreased rate of urine protein excretion.
# [4] = JZL184 4 or 8 mg/kg intraperitoneal, FIG. 9
compound,measurement,setting,value
"O=C(Oc1ccc([N+](=O)[O-])cc1)N1CCC(C(O)(c2ccc3c(c2)OCO3)c2ccc3c(c2)OCO3)CC1 [JZL184, 4-nitrophenyl-4-(dibenzo[d][1,3]dioxol-5-yl(hydroxy)methyl)piperidine-1-carboxylate]",blood pressure,[1],significant improvement
same,serum BUN concentration,[1],reduced
same,urinary protein excretion,[1],decreased
same,overt symptoms of endocannabinoid activation in the central nervous system,"[2]; 4 mg/kg in mice and 4-8 mg/kg in rats, have been shown (prior work)",without causing overt symptoms
same,brain and kidney levels of 2-AG,[2]; has been shown (prior work),significantly increase
same,cerebral cortex 2-AG concentration,[3]; [4],significant increase
same,renal 2-AG concentration,[3]; [4],significant increase
same,rate of urine protein excretion,"[3]; JZL184 4 or 8 mg/kg, 24-hour urine, FIG. 10",decreased
same,renal function (serum),"[3]; JZL184 4 or 8 mg/kg, FIG. 10",signal toward improved renal function
same,systolic blood pressure,"[3]; JZL184 4 or 8 mg/kg, tail-cuff plethysmography, FIG. 10",reduced
